Source: patent publication US20060134602A1, “Methods of identifying cytotoxic effects in quiescent cells” (priority 2004, published 2006)
pIC50: −log10 of the molar value. Where two headings read alike, the source gives them in different places. *1 amine or outer side, *2 acyl side, *3 side chain or, on linkers, in order; H or OH if unused. Where a SMILES comes first, the peptide text is derived from it. Bridges are numbered along the chain shown (N, C = ends). Roman numbers before positions name the chains, in order. [ ]: non-standard residue; d: D form. Actinocin(9to1) = Cc1c2oc3c(C)ccc(C(=O)[*:1])c3nc-2c(C(=O)[*:2])c(N)c1=O; NMeV = CN[C@H](C(=O)O)C(C)C; Sar = CNCC(=O)O

What was measured:
[1] = test system: quiescent IMR-90 human lung fibroblasts; experiment: cells
Description: Quantitation of Cytotoxicity: A luciferase assay kit was used to quantitate the amount of ATP produced by cells in each well to measure cytotoxicity of the compounds. The assay utilizes the enzyme luciferase which catalyses a reaction of ATP and luciferin to form light. The light produced is measured to determine the amount of ATP produced by the cells in each well. The higher the cell mortality in each well, the less ATP, and consequently, the less light will be produced. […] Wells in rows one and two, which contained no compound, were controls.
Preparation of Quiescent Cells: A 96 well plate was plated at 0.8×10^4 cells/well in 200 μL of growth medium (MEM with Earle's salt) with IMR-90 human lung fibroblasts. The cells were incubated at 37° C. for four days.
The media was removed from the wells, and each well was washed twice with 200 μL of MEM with Earle's salt and no serum. 90 μL/well of MEM with Earle's salt media containing sodium pyruvate, non-essential amino acids, L-glutamine and 0.1% fetal bovine serum was added to each well, and the cells were incubated for one day at 37° C.
10 μL of carbonyl cyanide (a positive control for cytotoxicity) stock solutions were added to rows one and two to obtain concentrations of 0 μM, 0.003 μM, 0.01 μM, 0.03 μM, 0.1 μM, 0.3 μM, 1.0 μM, 3.0 μM, 10.0 μM, 30.0 μM, and 100.0 μM in wells 2 through 12. 10 μL of stock solution of test compounds were added to duplicate row to obtain concentrations of 0 μM, 0.003 μM, 0.01 μM, 0.03 μM, 0.1 μM, 0.3 μM, 1.0 μM, 3.0 μM, 10.0 μM, 30.0 μM, and 100.0 μM in wells 2 through 12. The first well in each row contained no cells. […] The cells were incubated with the test compounds for 24 hours, 48 hours, or 72 hours.

[2] = test system: proliferating cancer cells; details: cited from earlier work
[3] = read-out: IC50, 24 hours, quiescent IMR-90 human lung fibroblasts, 24 hours incubation
[4] = read-out: IC50, 48 hours, quiescent IMR-90 human lung fibroblasts, 48 hours incubation
[5] = read-out: IC50, 72 hours, quiescent IMR-90 human lung fibroblasts, 72 hours incubation
[6] = Homo sapiens, IMR-90, 24 h, read-out: IC50, 24 hours, quiescent IMR-90 human lung fibroblasts, 24 hours incubation
[7] = Homo sapiens, IMR-90, 48 h, read-out: IC50, 48 hours, quiescent IMR-90 human lung fibroblasts, 48 hours incubation
[8] = Homo sapiens, IMR-90, 72 h, read-out: IC50, 72 hours, quiescent IMR-90 human lung fibroblasts, 72 hours incubation

SMILES	pIC50 [1, 3]	pIC50 [1, 4]	pIC50 [1, 5]	pIC50 [1, 6]	pIC50 [1, 7]	pIC50 [1, 8]	other results
O=c1[nH]cc(F)c(=O)[nH]1 [5-FU, 5-fluorouricil]	< 5.00	< 5.00	< 5.00	–	–	–	–
Cc1c2oc3c(C)ccc(C(=O)N[C@@H]4C(=O)N[C@H](C(C)C)C(=O)N5CCC[C@H]5C(=O)N(C)CC(=O)N(C)[C@@H](C(C)C)C(=O)O[C@@H]4C)c3nc-2c(C(=O)N[C@@H]2C(=O)N[C@H](C(C)C)C(=O)N3CCC[C@H]3C(=O)N(C)CC(=O)N(C)[C@@H](C(C)C)C(=O)O[C@@H]2C)c(N)c1=O [Atinomycin D, actinomycin D] (I: T[dV]P[Sar][NMeV] / II: T[dV]P[Sar][NMeV]; ester I:1-I:C, II:1-II:C; linker I:N-II:N via Actinocin(9to1))	< 5.00	< 5.00	5.51	–	–	–	time dependence of cytotoxicity against quiescent fibroblasts [1]: time-dependent increases in cytotoxicity
COc1cccc2c1C(=O)c1c(O)c3c(c(O)c1C2=O)C[C@@](O)(C(=O)CO)C[C@@H]3O[C@H]1C[C@H](N)[C@H](O)[C@H](C)O1 [Doxorubicin, doxorubicin]	–	–	–	< 5.00	5.28	5.60	time dependence of cytotoxicity against quiescent fibroblasts [1]: time-dependent increases in cytotoxicity
COc1cc([C@@H]2c3cc4c(cc3[C@@H](O[C@@H]3O[C@@H]5CO[C@@H](C)O[C@H]5[C@H](O)[C@H]3O)[C@H]3COC(=O)[C@H]23)OCO4)cc(OC)c1O [Etoposide, etoposide]	–	–	–	< 5.00	< 5.00	< 5.00	–
Nc1ccn([C@@H]2O[C@H](CO)[C@@H](O)C2(F)F)c(=O)n1 [Gemcitabine, gemcitabine]	–	–	–	< 5.00	< 5.00	< 5.00	–
CO[C@@]12[C@H](COC(N)=O)C3=C(C(=O)C(C)=C(N)C3=O)N1C[C@@H]1N[C@@H]12 [Mitomycin C, mitomycin C]	< 5.00	< 5.00	5.30	–	–	–	–
O=C1[O][Pt]2([NH][C@@H]3CCCC[C@H]3[NH]2)[O]C1=O [Oxaliplatin, oxaliplatin]	< 5.00	< 5.00	< 5.00	–	–	–	–
CC(=O)O[C@H]1C(=O)[C@@]2(C)[C@H]([C@H](OC(=O)c3ccccc3)[C@]3(O)C[C@H](OC(=O)[C@H](O)[C@@H](NC(=O)c4ccccc4)c4ccccc4)C(C)=C1C3(C)C)[C@]1(OC(C)=O)CO[C@@H]1C[C@@H]2O [Paclitaxel, paclitaxel]	–	–	5.00	< 5.00	< 5.00	5.07	concentration at which cytotoxic to quiescent fibroblasts ([1]; human, 72 h): approximately 10 μM; concentration inhibiting cancer cell growth [2]: low nanomolar concentration
CCc1c2c(nc3ccc(O)cc13)-c1cc3c(c(=O)n1C2)COC(=O)[C@]3(O)CC [SN-38]	5.15	5.10	5.07	–	–	–	–
CC[C@]1(O)C[C@@H]2CN(CCc3c([nH]c4ccccc34)[C@@](C(=O)OC)(c3cc4c(cc3OC)N(C)[C@H]3[C@@](O)(C(=O)OC)[C@H](OC(C)=O)[C@]5(CC)C=CCN6CC[C@]43[C@@H]65)C2)C1 [Vinblastine, vinblastine]	–	–	–	< 5.00	< 5.00	< 5.00	–
CC[C@]1(O)C[C@H]2CN(CCc3c([nH]c4ccccc34)[C@@](C(=O)OC)(c3cc4c(cc3OC)N(C=O)[C@H]3[C@@](O)(C(=O)OC)[C@H](OC(C)=O)[C@]5(CC)C=CCN6CC[C@]43[C@@H]65)C2)C1 [Vincristine, vincristine]	–	–	–	< 5.00	< 5.00	< 5.00	–
C[C@@H]1C[C@@H]([C@H](O)CC2CC(=O)NC(=O)C2)C(=O)[C@@H](C)C1 [cycloheximide]	–	–	–	–	–	–	pIC50 ([1]; Homo sapiens, IMR-90, 24 h, read-out: IC50, 24 hours): < 5.00; pIC50 ([1]; Homo sapiens, IMR-90, 48 h, read-out: IC50, 48 hours): < 5.00; pIC50 ([1]; Homo sapiens, IMR-90, 72 h, read-out: IC50, 72 hours): < 5.00
